This is an account of results in patent US10974036B2, “Implantable device for long-term delivery of drugs” (Delpor, Inc., priority 2009, dated 2021).

The nature of data set [1]: In vitro release of risperidone, Franz-type diffusion cells with different porous partitions (Example 1). Conditions: after 3-4 day equilibration phase, suspension with PLGA, room temperature. The data set is classed as physicochemical. From the text:
As described in Example 1, typical Franz-type diffusion cells were fitted with a porous partition separating a donor chamber from a receptor chamber. The partitions were selected to span a wide range of pore sizes (i.e., molecular weight cut-off or “MWCO”, values or nominal pose diameter) The porous partitions selected for use in this study had molecular weight cut-off values of 100,000 Daltons and 3,000 Daltons. In addition, a porous partition in the form of a […] polyvinyldenefluoride membrane filter (Durapore®) was used.
Sustained, substantially zero-order release rate was obtained, as best seen in FIG. 7B.
Typical Franz-type diffusion cells were fitted with porous partitions separating a donor chamber from a receptor chamber. The porous partitions were membranes with pore sizes of 3,000 Daltons molecular weight cut-off, 100,000 Daltons molecular weight cut-off and a 0.45 micron polyvinyldenefluoride membrane filter (Durapore®). […] The cells were maintained at room temperature. […] Buffer was replaced each day.

Data set [2] in a line: In vivo plasma concentration after subcutaneous implantation of devices in rats (Example 5, FIG. 12B). The settings on record: subcutaneous device containing risperidone only, first week. The protocol: For in vivo experiments, rats were anesthetized and devices placed subcutaneously in the dorsum, lateral to the midline, using a trocar. Whole blood samples were obtained by tail vein venous puncture. Plasma was immediately separated from formed elements by centrifugation. […] The lower limit of quantitation was 0.10 ng/mL.

For data set [3] the following is noted: 100 mg risperidone, PBS pH 7.4, 37° C.
Method: Two groups of drug delivery devices were assembled as follows. Cylindrical titanium tubes, 4 mm in diameter and 35 mm in length, were prepared. […] The reservoirs of the devices were filled with phosphate buffered saline (PBS) at pH 7.4 under reduced pressure. Each of the devices in Group B was fitted with two regenerated cellulose membranes (5000 Daltons molecular weight cut off) at each end of the cylindrical tube by sandwiching the membrane between an o-ring and titanium frit (5 micron pores), as illustrated in FIGS. 5A-5B. The devices in Group A were identical, except the cellulose membrane was omitted, as illustrated in FIGS. 4A-4B. The devices were then placed individually in tubes containing approximately 1 mL PBS. The tubes were placed on a rotating rack (1 revolution per hour) at 37° C.
Buffer was diluted to 20-50 micrograms/mL prior to measurement to insure that the concentration was within the linear range of the UV measurement. Buffer was replaced each day.
For data set [4] the following is noted: PBS, 37° C.
Method: In yet another study, devices were prepared as described herein an tested in vitro and in vivo.
Two groups of devices (n=6) were prepared. The main body of each device consisted of a cylindrical titanium tube, definining an internal reservoir. The tubes were 35 mm in length, with an outer diameter (OD) of 4.3 mm and an inner diameter (ID) of about 3 mm (Peridot Manufacturing, Pleasanton, Calif.). Both ends of each tube were tapered (lathed) so as to accept a press cap which served to retain a porous partition, as illustrated in FIGS. 4-5. The first group of devices was fitted on one end with a titanium sintered frit having a diameter 3.5 mm, a depth 0.5 mm, and a 5 micron nominal particle retention size (Applied Porous Materials, Farmington, Conn.). The frit was secured in each tube by placing the tube horizontally in a holder, and then positioning over the open end, in sequence, the frit, an o-ring and the press cap.
A 2.5 mm stainless steel ball was placed in the reservoir to provide mixing. A second frit was sealed to the remaining open end of the reservoir using the same procedure as described above for the other end. […]
Both groups of devices were equally split, each subgroup of 3 devices destined for either in vitro or in vivo testing. In vitro release rate was determined by submerging the devices in 1 mL PBS held in screw cap cryo-vials. […]
For data set [5] the following is noted: cited from earlier work.
For data set [6] the following is noted: cited from earlier work. This is another data set of the same source.
Data set [7] in a line: in vivo. The settings on record: human, plasma, iv.

Converted amounts (≈) assume the structure as drawn. “And” between values parts separate entries of the source, which are not always exact repeats. Equal entries are not always repeated. Where two headings read alike, the source gives them in different places.

Turning to `Cc1nc2n(c(=O)c1CCN1CCC(c3noc4cc(F)ccc34)CC1)CCCC2` [Risperidone, risperidone], the “release rate of risperidone” value amounted to 70 µg/day in data set [1] (0.45 polyvinyldenefluoride membrane filter (Durapore)), 100 µg/day in data set [1] (porous partition 3,000 Dalton molecular weight cut-off) and 200 µg/day in data set [1] (porous partition 100,000 Dalton molecular weight cut-off). The “plasma levels of risperidone (plus 9-hydroxyrisperidone)” value in data set [2] is “barely detectable”. Besides, the release rate (5 mg 85:15 PLGA in suspension (FIG. 9)) was found to be 0.25 mg/day, the release rate (10 mg 85:15 PLGA in suspension (FIG. 9)) amounted to 0.43 mg/day, the release rate (15 mg 85:15 PLGA in suspension (FIG. 9)) is 0.64 mg/day and the release rate result in data set [3] (devices without PLGA (Group A)) was “less than 0.05 mg/day”. The compound further registered an average release rate in data set [3] (devices with 5 mg 50:50 PLGA and 15 mg 85:15 PLGA (Group B)) of 1 to 1.2 mg/day. For the same compound, the “in vitro release rate” value is recorded as “above 0.4 mg/day” in data set [4] (devices with PLGA (15 mg 50:50 and 50 mg 85:15), maintained for 30 days); “less than 0.05 mg/day” in data set [4] (devices without PLGA, throughout 30 days). The “Target Steady state plasma conc” value in data set [5] (in vivo) is given as 20 ng/mL.
For the compound `Cc1cc2c(s1)Nc1ccccc1N=C2N1CCN(C)CC1` [Olanzapine, olanzapine], the “Target Steady state plasma conc” value in data set [5] (in vivo) is 30 ng/mL. The Bioavailability oral in data set [5] is 60%.
`O=C(CCCN1CCC(O)(c2ccc(Cl)cc2)CC1)c1ccc(F)cc1` [Haloperidol, haloperidol]: the “Water solubility (mg/mL) acidic pH” value in data set [6] (acidic pH) is reported as 4.2 mg/mL. Also, the “Water solubility (mg/mL) neutral pH” value in data set [6] is recorded as 0.025 mg/mL. In data set [5] (in vivo), the “Half-life” value is 29 h and the “Target Steady state plasma conc” value was 2 ng/mL. In data set [5], the “CL(L/hr) (iv)” value was 42 L/h and 22 L/h; the Bioavailability oral was 65%. In data set [7], this compound had a clearance of 667 mL/min.
With `Cc1nc2n(c(=O)c1CCN1CCC(c3noc4cc(F)ccc34)CC1)CCCC2O` (stereo not shown) [Paliperidone, paliperidone], the “Water solubility acidic pH relative to neutral pH” value in data set [6] (acidic pH) is reported as 100 x neutral. For the same compound, the “Water solubility (mg/mL) neutral pH” value in data set [6] is 0.54 mg/mL. Further, the “Half-life” value in data set [5] (in vivo) was 24 h.
In the case of `O=C1CCc2ccc(OCCCCN3CCN(c4cccc(Cl)c4Cl)CC3)cc2N1` [Aripiprazole, aripiprazole], in data set [5] (in vivo), the “Half-life” value was 3 h and the “Target Steady state plasma conc” value is given as 100 ng/mL. The “CL(L/hr) (iv)” value in data set [5] is 2.37 L/h. In addition, in data set [7], the clearance is 39.6 mL/min.
Take `CN1CC2c3ccccc3Oc3ccc(Cl)cc3C2C1` (stereo not shown) [Asenapine, asenapine]: the “Water solubility (mg/mL) acidic pH” value in data set [6] (acidic pH) is 13 mg/mL. Also, in data set [6] (in 0.1N HCl), the solubility was 13000 µg/mL (≈ 45.5 mM). Moreover, in data set [6], the “Water solubility (mg/mL) neutral pH” value is on record as 3.0 mg/mL. The water solubility in data set [6] (pH 7-7.4) is 3000 µg/mL (≈ 10.5 mM). For the same compound, the water solubility in data set [6] (pH 7.0) is 3000 µg/mL (≈ 10.5 mM). Also, in data set [5] (in vivo), the “Half-life” value was 24 h, the “Target Steady state plasma conc” value is listed as 2.1 ng/mL and the plasma clearance was 52 L/h. Also, in data set [5], the “CL(L/hr) (iv)” value was 52 L/h and the Bioavailability oral was under 2%. Moreover, the Bioavailability sublingual in data set [5] (sublingual) is recorded as 30%. Moreover, the clearance in data set [7] was 867 mL/min.
